Measurements published in PMC12102759 (Protein Science : A Publication of the Protein Society, 2025).
Read-outs that look alike come from different tables or passages of the source.

System: PABPC1 PABC
Format: binding, human
Conditions: DMS-BM library, bait PABPC1 PABC, row aa = residue at this position; for DMS-derived PSSM value, position T3 / DMS-derived PSSM value, position T1 / DMS-derived PSSM value (averaged), position T1: T = wild type; for DMS-derived PSSM value, position K9 / DMS-derived PSSM value (averaged), position K7: K = wild type
[1] = prey ATXN2, peptide KSTLNPNAKEFNPRSF, F = wild type
[2] = prey ATXN2, peptide TLNPNAKEFNPRSFSQ, A = wild type
[3] = prey ATXN2, peptide KSTLNPNAKEFNPRSF, N = wild type
[4] = prey ATXN2, peptide KSTLNPNAKEFNPRSF, P = wild type
[5] = prey ATXN2, TLNPNAKEFNPRSF(averaged) over the two overlapping peptides, P = wild type
[6] = prey ATXN2, peptide KSTLNPNAKEFNPRSF
[7] = prey ATXN2, peptide TLNPNAKEFNPRSFSQ
[8] = prey ATXN2, peptide TLNPNAKEFNPRSFSQ, S = wild type
[9] = prey ATXN2, TLNPNAKEFNPRSF(averaged) over the two overlapping peptides, E = wild type
[10] = prey ATXN2, peptide TLNPNAKEFNPRSFSQ, F = wild type
[11] = prey ATXN2, TLNPNAKEFNPRSF(averaged) over the two overlapping peptides, N = wild type
[12] = prey ATXN2, TLNPNAKEFNPRSF(averaged) over the two overlapping peptides, F = wild type
[13] = prey ATXN2, peptide TLNPNAKEFNPRSFSQ, P = wild type
[14] = prey ATXN2, TLNPNAKEFNPRSF(averaged) over the two overlapping peptides
[15] = prey ATXN2, peptide KSTLNPNAKEFNPRSF, R = wild type
[16] = prey ATXN2, peptide KSTLNPNAKEFNPRSF, A = wild type
[17] = prey ATXN2, peptide KSTLNPNAKEFNPRSF, L = wild type
[18] = prey ATXN2, peptide KSTLNPNAKEFNPRSF, S = wild type
[19] = prey ATXN2, peptide TLNPNAKEFNPRSFSQ, N = wild type

Substance: KSTLNPNAKEFNPRSF F16H (KSTLNPNAKEFNPRSH)
- DMS-derived PSSM value, position F16 [1]: 0.03107

Substance: TLNPNAKEFNPRSFSQ A6D (TLNPNDKEFNPRSFSQ)
- DMS-derived PSSM value, position A6 [2]: 0

Substance: KSTLNPNAKEFNPRSF N7M (KSTLNPMAKEFNPRSF)
- DMS-derived PSSM value, position N7 [3]: 0.02788

Substance: KSTLNPNAKEFNPRSF P6E (KSTLNENAKEFNPRSF)
- DMS-derived PSSM value, position P6 [4]: 0

Substance: TLNPNAKEFNPRSFSQ A6K (TLNPNKKEFNPRSFSQ)
- DMS-derived PSSM value, position A6 [2]: 0

Substance: TLNPNAKEFNPRSF(averaged) A6Q (TLNPNQKEFNPRSF)
- DMS-derived PSSM value (averaged), position A6 (prey ATXN2, TLNPNAKEFNPRSF(averaged) over the two overlapping peptides, A = wild type): 0

Substance: TLNPNAKEFNPRSF(averaged) P11T (TLNPNAKEFNTRSF)
- DMS-derived PSSM value (averaged), position P11 [5]: 0.141

Substance: KSTLNPNAKEFNPRSF T3Q (KSQLNPNAKEFNPRSF)
- DMS-derived PSSM value, position T3 [6]: 0

Substance: TLNPNAKEFNPRSFSQ T1L (LLNPNAKEFNPRSFSQ)
- DMS-derived PSSM value, position T1 [7]: 0.1166

Substance: KSTLNPNAKEFNPRSF N5F (KSTLFPNAKEFNPRSF)
- DMS-derived PSSM value, position N5 [3]: 0

Substance: TLNPNAKEFNPRSFSQ S15T (TLNPNAKEFNPRSFTQ)
- DMS-derived PSSM value, position S15 [8]: 0.0005737

Substance: TLNPNAKEFNPRSF(averaged) E8S (TLNPNAKSFNPRSF)
- DMS-derived PSSM value (averaged), position E8 [9]: 0.04903

Substance: TLNPNAKEFNPRSF(averaged) S13Y (TLNPNAKEFNPRYF)
- DMS-derived PSSM value (averaged), position S13 (prey ATXN2, TLNPNAKEFNPRSF(averaged) over the two overlapping peptides, S = wild type): 0.0362

Substance: TLNPNAKEFNPRSFSQ F9T (TLNPNAKETNPRSFSQ)
- DMS-derived PSSM value, position F9 [10]: 0.05894

Substance: KSTLNPNAKEFNPRSF F16N (KSTLNPNAKEFNPRSN)
- DMS-derived PSSM value, position F16 [1]: 0.04727

Substance: TLNPNAKEFNPRSF(averaged) N3V (TLVPNAKEFNPRSF)
- DMS-derived PSSM value (averaged), position N3 [11]: 0

Substance: TLNPNAKEFNPRSFSQ L2I (TINPNAKEFNPRSFSQ)
- DMS-derived PSSM value, position L2 (prey ATXN2, peptide TLNPNAKEFNPRSFSQ, L = wild type): 0.001607

Substance: TLNPNAKEFNPRSFSQ R12L (TLNPNAKEFNPLSFSQ)
- DMS-derived PSSM value, position R12 (prey ATXN2, peptide TLNPNAKEFNPRSFSQ, R = wild type): 0.01731

Substance: TLNPNAKEFNPRSF(averaged) F14R (TLNPNAKEFNPRSR)
- DMS-derived PSSM value (averaged), position F14 [12]: 0.0001414

Substance: KSTLNPNAKEFNPRSF P6I (KSTLNINAKEFNPRSF)
- DMS-derived PSSM value, position P6 [4]: 0.3229

Substance: TLNPNAKEFNPRSFSQ P11T (TLNPNAKEFNTRSFSQ)
- DMS-derived PSSM value, position P11 [13]: 0.2817

Substance: KSTLNPNAKEFNPRSF N7D (KSTLNPDAKEFNPRSF)
- DMS-derived PSSM value, position N7 [3]: 0.07378

Substance: TLNPNAKEFNPRSF(averaged) T1D (DLNPNAKEFNPRSF)
- DMS-derived PSSM value (averaged), position T1 [14]: 0.05337

Substance: TLNPNAKEFNPRSF(averaged) N3L (TLLPNAKEFNPRSF)
- DMS-derived PSSM value (averaged), position N3 [11]: 0

Substance: KSTLNPNAKEFNPRSF R14G (KSTLNPNAKEFNPGSF)
- DMS-derived PSSM value, position R14 [15]: 0.105

Substance: TLNPNAKEFNPRSFSQ S15K (TLNPNAKEFNPRSFKQ)
- DMS-derived PSSM value, position S15 [8]: 0.007327

Substance: KSTLNPNAKEFNPRSF F11N (KSTLNPNAKENNPRSF)
- DMS-derived PSSM value, position F11 [1]: 0.09626

Substance: KSTLNPNAKEFNPRSF A8R (KSTLNPNRKEFNPRSF)
- DMS-derived PSSM value, position A8 [16]: 0

Substance: TLNPNAKEFNPRSF(averaged) P11Y (TLNPNAKEFNYRSF)
- DMS-derived PSSM value (averaged), position P11 [5]: 0.02499

Substance: KSTLNPNAKEFNPRSF R14Y (KSTLNPNAKEFNPYSF)
- DMS-derived PSSM value, position R14 [15]: 0.04467

Substance: KSTLNPNAKEFNPRSF P6L (KSTLNLNAKEFNPRSF)
- DMS-derived PSSM value, position P6 [4]: 0.1435

Substance: TLNPNAKEFNPRSFSQ F9A (TLNPNAKEANPRSFSQ)
- DMS-derived PSSM value, position F9 [10]: 0

Substance: TLNPNAKEFNPRSF(averaged) L2D (TDNPNAKEFNPRSF)
- DMS-derived PSSM value (averaged), position L2 (prey ATXN2, TLNPNAKEFNPRSF(averaged) over the two overlapping peptides, L = wild type): 0

Substance: TLNPNAKEFNPRSF(averaged) F14Y (TLNPNAKEFNPRSY)
- DMS-derived PSSM value (averaged), position F14 [12]: 0.08672

Substance: TLNPNAKEFNPRSFSQ T1F (FLNPNAKEFNPRSFSQ)
- DMS-derived PSSM value, position T1 [7]: 0.0001584

Substance: KSTLNPNAKEFNPRSF
- DMS-derived PSSM value, position A8 [16]: 0.5804
- DMS-derived PSSM value, position E10 (prey ATXN2, peptide KSTLNPNAKEFNPRSF, E = wild type): 0.1617
- DMS-derived PSSM value, position F11 [1]: 0.393
- DMS-derived PSSM value, position F16 [1]: 0.06015
- DMS-derived PSSM value, position K9 [6]: 0.008078
- DMS-derived PSSM value, position L4 [17]: 0.6837
- DMS-derived PSSM value, position N5 [3]: 0.9124
- DMS-derived PSSM value, position N7 [3]: 0.02963
- DMS-derived PSSM value, position N12 [3]: 0.02408
- DMS-derived PSSM value, position P6 [4]: 0.1132
- DMS-derived PSSM value, position P13 [4]: 0.007578
- DMS-derived PSSM value, position R14 [15]: 0.01898
- DMS-derived PSSM value, position S2 [18]: 0.03631
- DMS-derived PSSM value, position S15 [18]: 0.05273
- DMS-derived PSSM value, position T3 [6]: 0.04565

Substance: TLNPNAKEFNPRSF(averaged) F9N (TLNPNAKENNPRSF)
- DMS-derived PSSM value (averaged), position F9 [12]: 0.04813

Substance: TLNPNAKEFNPRSF(averaged) T1M (MLNPNAKEFNPRSF)
- DMS-derived PSSM value (averaged), position T1 [14]: 0.04356

Substance: KSTLNPNAKEFNPRSF T3L (KSLLNPNAKEFNPRSF)
- DMS-derived PSSM value, position T3 [6]: 0.01491

Substance: TLNPNAKEFNPRSF(averaged) P11F (TLNPNAKEFNFRSF)
- DMS-derived PSSM value (averaged), position P11 [5]: 0.06425

Substance: KSTLNPNAKEFNPRSF K9T (KSTLNPNATEFNPRSF)
- DMS-derived PSSM value, position K9 [6]: 0.02286

Substance: KSTLNPNAKEFNPRSF L4Y (KSTYNPNAKEFNPRSF)
- DMS-derived PSSM value, position L4 [17]: 0

Substance: KSTLNPNAKEFNPRSF F16R (KSTLNPNAKEFNPRSR)
- DMS-derived PSSM value, position F16 [1]: 0

Substance: TLNPNAKEFNPRSFSQ N3T (TLTPNAKEFNPRSFSQ)
- DMS-derived PSSM value, position N3 [19]: 0.01993

Substance: KSTLNPNAKEFNPRSF T3G (KSGLNPNAKEFNPRSF)
- DMS-derived PSSM value, position T3 [6]: 0.0785

Substance: TLNPNAKEFNPRSF(averaged) K7L (TLNPNALEFNPRSF)
- DMS-derived PSSM value (averaged), position K7 [14]: 0.03789

Substance: KSTLNPNAKEFNPRSF S15Q (KSTLNPNAKEFNPRQF)
- DMS-derived PSSM value, position S15 [18]: 0

Substance: TLNPNAKEFNPRSF(averaged) E8Y (TLNPNAKYFNPRSF)
- DMS-derived PSSM value (averaged), position E8 [9]: 0.02496

Substance: TLNPNAKEFNPRSF(averaged) P11L (TLNPNAKEFNLRSF)
- DMS-derived PSSM value (averaged), position P11 [5]: 0.01529

Substance: TLNPNAKEFNPRSFSQ S13M (TLNPNAKEFNPRMFSQ)
- DMS-derived PSSM value, position S13 [8]: 0.008683

Substance: TLNPNAKEFNPRSFSQ P11N (TLNPNAKEFNNRSFSQ)
- DMS-derived PSSM value, position P11 [13]: 0.04264

Substance: TLNPNAKEFNPRSF(averaged) F14K (TLNPNAKEFNPRSK)
- DMS-derived PSSM value (averaged), position F14 [12]: 0.01179

Substance: TLNPNAKEFNPRSFSQ N3V (TLVPNAKEFNPRSFSQ)
- DMS-derived PSSM value, position N3 [19]: 0

Substance: KSTLNPNAKEFNPRSF K9V (KSTLNPNAVEFNPRSF)
- DMS-derived PSSM value, position K9 [6]: 0.0001287

Substance: KSTLNPNAKEFNPRSF S15T (KSTLNPNAKEFNPRTF)
- DMS-derived PSSM value, position S15 [18]: 0.007163

Substance: TLNPNAKEFNPRSF(averaged) K7F (TLNPNAFEFNPRSF)
- DMS-derived PSSM value (averaged), position K7 [14]: 0.04105

Substance: TLNPNAKEFNPRSFSQ N10W (TLNPNAKEFWPRSFSQ)
- DMS-derived PSSM value, position N10 [19]: 0.06015

Substance: TLNPNAKEFNPRSFSQ T1W (WLNPNAKEFNPRSFSQ)
- DMS-derived PSSM value, position T1 [7]: 0.001527

Substance: KSTLNPNAKEFNPRSF N7V (KSTLNPVAKEFNPRSF)
- DMS-derived PSSM value, position N7 [3]: 0.01745

Substance: TLNPNAKEFNPRSFSQ S15I (TLNPNAKEFNPRSFIQ)
- DMS-derived PSSM value, position S15 [8]: 0.0111

Substance: KSTLNPNAKEFNPRSF N5G (KSTLGPNAKEFNPRSF)
- DMS-derived PSSM value, position N5 [3]: 0

Substance: KSTLNPNAKEFNPRSF P6V (KSTLNVNAKEFNPRSF)
- DMS-derived PSSM value, position P6 [4]: 0.3743
